The text below walks through data of patent US20080221094A1, “Metalloprotease inhibitors containing a squaramide moiety” (priority 2007, published 2008).

As usually defined, the IC50 is the concentration at which inhibition is half-maximal. Low values mean higher potency, high ones lower potency.

The target of the assay is T1, MMP-13 (Homo sapiens, UniProt P45452).
T1 construct: 10 μL of a 50 nM stock solution of catalytic domain of MMP-13 enzyme; purchased Invitek (Berlin) 30100812
Nature of the assay: Assay for Determining MMP-13 Inhibition. The settings on record: catalytic domain of MMP-13, fluorescent substrate. Format: biochemical. How it is done:
The typical assay for MMP-13 activity is carried out in assay buffer comprised of 50 mM Tris, pH 7.5, 150 mM NaCl, 5 mM CaCl2 and 0.05% Brij-35. Different concentrations of tested compounds are prepared in assay buffer in 50 μL aliquots. 10 μL of a 50 nM stock solution of catalytic domain of MMP-13 enzyme (produced by Alantos or commercially available from Invitek (Berlin), Cat.# 30100812) is added to the compound solution. The mixture of enzyme and compound in assay buffer is thoroughly mixed and incubated for 10 min at room temperature. Upon the completion of incubation, the assay is started by addition of 40 μL of a 12.5 μM stock solution of MMP-13 fluorescent substrate (Calbiochem, Cat. No. 444235). The time-dependent increase in fluorescence is measured at the 320 nm excitation and 390 nm emission by automatic plate multireader. The IC50 values are calculated from the initial reaction rates.

`Nc1c(N2CCc3ccc(CNC(=O)c4nc(O)nc5ccccc45)cc3C2)c(=O)c1=O` [Example 1]: the IC50 is less than 0.5 µM.
`Nc1c(N2CCc3ccc(CNC(=O)c4cnc5ccccc5n4)cc3C2)c(=O)c1=O` [2/50]: the IC50 is less than 0.5 µM.
